What was measured:
Klebsiella pneumoniae = assay: Susceptibility of hospital Klebsiella pneumoniae isolates (annual antibiogram); type: cell-based; conditions: for Change in susceptibility of Klebsiella pneumoniae: 218 isolates, 2000 vs 2002 and 2003, T test; for Percent Susceptible in 2000 / Percent Susceptible in 2002 / Percent Susceptible in 2003: K. pneumoniae isolates; for Percent Susceptible in 2000: 2000, year prior to program; for Percent Susceptible in 2002 / Percent Susceptible in 2003: * = statistically significant change compared to 2000
Excerpt: (§1) The Microbiology Department collected data on the susceptibility of major pathogens and published an annual antibiograrn, a copy of which was placed in each hospital chart as well as sent to all physicians. […] T tests were used in determining statistical significance between the years.

Serratia marcescens = assay: Susceptibility of Serratia marcescens isolates (annual antibiogram); type: cell-based; conditions: 109 isolates; 2000 vs 2002 and 2003
Excerpt: as §1

non-urinary E. coli = assay: Susceptibility of non-urinary E. coli isolates (annual antibiogram); type: cell-based; conditions: 548 isolates
Excerpt: as §1

urinary E. coli = assay: Susceptibility of urinary E. coli isolates (annual antibiogram); type: cell-based; conditions: 1615 isolates
Excerpt: as §1

Enterobucter cloucue = assay: Susceptibility of Enterobacter cloacae isolates (annual antibiogram); type: cell-based; conditions: 134 isolates; 2000 vs 2002 and 2003
Excerpt: as §1

[1] = tested on: non-urinary Pseuclomonas aeruginosa; assay: Susceptibility of non-urinary Pseudomonas aeruginosa isolates (annual antibiogram); type: cell-based; conditions: 338 isolates; 2000 vs 2002 and 2003
Excerpt: as §1

Proteus mirahilis = assay: Susceptibility of Proteus mirabilis isolates (annual antibiogram); type: cell-based; conditions: 133 isolates; 2000 vs 2002 and 2003
Excerpt: as §1

Pseudomonas aeruginosa = tested on: Pseudomonas aeruginosa
Excerpt: as §1

[2] = 2000, last year before the study

Row | Molecule | Change in susceptibility of Klebsiella pneumoniae (Klebsiella pneumoniae) | Percent Susceptible in 2000 (Klebsiella pneumoniae) [%] | Percent Susceptible in 2002 (Klebsiella pneumoniae) | Percent Susceptible in 2003 (Klebsiella pneumoniae) | other results
1 | Gentamicin | statistically significant increase in susceptibility | 83 | 99* Percent | 96% | 
2 | CC(C)(O/N=C(\C(=O)N[C@@H]1C(=O)N2C(C(=O)[O-])=C(C[n+]3ccccc3)CS[C@H]12)c1csc(N)n1)C(=O)O [Ceftazidime] | statistically significant increase in susceptibility | 85 | 99* Percent | 96* Percent | Change in susceptibility of Serratia marcescens (Serratia marcescens): no statistically significant change; Change in susceptibility of non-urinary E. coli (non-urinary E. coli; 2000 vs 2002 and 2003): not significant; Susceptibility of urinary E. coli, before (urinary E. coli; [2]): 100%; Susceptibility of urinary E. coli, after (urinary E. coli; during the study (2002 and 2003), significant fall): 98%; Change in susceptibility of Enterobacter cloacae (Enterobucter cloucue): no statistically significant change; Change in susceptibility of non-urinary Pseudomonas aeruginosa [1]: no statistically significant change; Change in susceptibility of Proteus mirabilis (Proteus mirahilis): no statistically significant change
3 | NC[C@H]1O[C@H](O[C@H]2[C@H](O)[C@@H](O[C@H]3O[C@H](CO)[C@@H](O)[C@H](N)[C@H]3O)[C@H](N)C[C@@H]2N)[C@H](N)C[C@@H]1O [Tobramycin] | statistically significant increase in susceptibility | 90 | 99* Percent | 96% | 
4 | CO/N=C(\C(=O)N[C@@H]1C(=O)N2C(C(=O)O)=C(COC(N)=O)CS[C@H]12)c1ccco1 [Cefuroxime] | statistically significant increase in susceptibility | 78 | 94* Percent | 93* Percent | 
5 | CO/N=C(\C(=O)N[C@@H]1C(=O)N2C(C(=O)[O-])=C(C[N+]3(C)CCCC3)CS[C@H]12)c1csc(N)n1 [Cefepime] | did not reach statistical significance | 94 | 98% | 98% | Change in susceptibility of Serratia marcescens (Serratia marcescens): no statistically significant change; Susceptibility of non-urinary E. coli, before (non-urinary E. coli; [2]): 100%; Susceptibility of non-urinary E. coli, after (non-urinary E. coli; during the study (2002 and 2003), significant decrease): 98%; Change in susceptibility of non-urinary Pseudomonas aeruginosa [1]: no statistically significant change; Change in susceptibility of Proteus mirabilis (Proteus mirahilis): no statistically significant change
6 | C[C@@H](O)[C@H]1C(=O)N2C(C(=O)O)=C(SCCN=CN)C[C@H]12 [imipenem] |  |  |  |  | Pseudomonas aeruginosa susceptibility in 2000 (Pseudomonas aeruginosa; 2000): 93%; Pseudomonas aeruginosa susceptibility in 2002 (Pseudomonas aeruginosa; 2002, significant decrease): 83%; Pseudomonas aeruginosa susceptibility in 2003 (Pseudomonas aeruginosa; 2003): 91%
7 | Trimethoprirn/Sulfa | statistically significant increase in susceptibility | 86 | 97* Percent | 93% | 
8 | C[C@H]1COc2c(N3CCN(C)CC3)c(F)cc3c(=O)c(C(=O)O)cn1c23 [Levofloxacin] |  | 82 | 99* Percent | 96* Percent | 
9 | CO/N=C(\C(=O)N[C@@H]1C(=O)N2C(C(=O)O)=C(CSc3nc(=O)c(=O)[nH]n3C)CS[C@H]12)c1csc(N)n1 [Ceftriaxone] | statistically significant increase in susceptibility | 85 | 98* Percent | 96* Percent | 
